Results published in ChEMBL document CHEMBL1201862, “PubChem BioAssay data set” (2004).
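A five-concentration, 48-hour dose response in 96-well plates underlies each endpoint, interpolated linearly between surrounding concentrations. GI50: concentration for 50% inhibition of growth.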 Active and inactive are the calls of the source. Rule as the data show it: active = GI50 up to about 1.1 µM and inactive = higher.

Columns and labels:
Experiment in all cases: DTP human tumour cell line panel, 48 h
SN12C = system: SN12C
SNB-75 = system: SNB-75
MOLT-4 = system: MOLT-4
SF-268 = system: SF-268
PC-3 = system: PC-3
UACC-257 = system: UACC-257
SK-MEL-2 = system: SK-MEL-2
T47D = system: T47D
EKVX = system: EKVX
MDA-N = system: MDA-N
A549 = system: A549
KM12 = system: KM12
OVCAR-3 = system: OVCAR-3
SR = system: SR
COLO 205 = system: COLO 205
NCI-H226 = system: NCI-H226
HCT-15 = system: HCT-15
ACHN = system: ACHN
A498 = system: A498
SK-OV-3 = system: SK-OV-3

| SMILES | GI50 (SN12C) | GI50 (SNB-75) | GI50 (MOLT-4) | GI50 (SF-268) | GI50 (PC-3) | GI50 (UACC-257) | GI50 (SK-MEL-2) | GI50 (T47D) | GI50 (EKVX) | GI50 (MDA-N) | GI50 (A549) | GI50 (KM12) | GI50 (OVCAR-3) | GI50 (SR) | GI50 (COLO 205) | GI50 (NCI-H226) | GI50 (HCT-15) [µM] | GI50 (ACHN) | GI50 (A498) | GI50 (SK-OV-3) |
| --- | --- | --- | --- | --- | --- | --- | --- | --- | --- | --- | --- | --- | --- | --- | --- | --- | --- | --- | --- | --- |
| O=C(c1ccc(Cl)cc1Cl)N(Cc1cccnc1)C(=S)N(Cc1cccnc1)C(=O)c1ccc(Cl)cc1Cl | 4.68 µM (inactive) | 4.07 µM (inactive) | 4.06 µM (inactive) | 4.68 µM (inactive) | 2.4 µM (inactive) | 6.32 µM (inactive) | 3.58 µM (inactive) | 11.4 µM (inactive) | 15.7 µM (inactive) | 2.31 µM (inactive) | 19 µM (inactive) | 2.96 µM (inactive) | 2.67 µM (inactive) | 3.4 µM (inactive) | 2.08 µM (inactive) | 16.7 µM (inactive) | 3.12 | 9.62 µM (inactive) | 10.3 µM (inactive) | 19.3 µM (inactive) |
| CC(C)=CCC[C@@H](C)C1=C(O)C(=O)C(C)=C(Nc2ccccc2Cl)C1=O | 25.1 µM (inactive) | 8.75 µM (inactive) | 5 µM (inactive) | 16 µM (inactive) | 18.5 µM (inactive) | 25.9 µM (inactive) | 15.5 µM (inactive) | 12.6 µM (inactive) | 19 µM (inactive) | 21.5 µM (inactive) | 19 µM (inactive) | 10.8 µM (inactive) | 10.8 µM (inactive) | 11.5 µM (inactive) | 14.2 µM (inactive) | 13.1 µM (inactive) | 7.26 | 19.1 µM (inactive) | 17.5 µM (inactive) | 27.1 µM (inactive) |
| Nc1nc(Cl)cc(NCC2(CO)CC(O)C2)n1 (stereo not given) | > 100 µM (inactive) | > 100 µM (inactive) | > 100 µM (inactive) | > 100 µM (inactive) | > 100 µM (inactive) | > 100 µM (inactive) | > 100 µM (inactive) | > 100 µM (inactive) | > 100 µM (inactive) | > 100 µM (inactive) | > 100 µM (inactive) | > 100 µM (inactive) | > 100 µM (inactive) | > 100 µM (inactive) | > 100 µM (inactive) | > 100 µM (inactive) | > 100 | > 100 µM (inactive) | > 100 µM (inactive) | > 100 µM (inactive) |
| Cc1cc2nc3ccc(N(C)C)cc3[s+]c2cc1N [TOLONIUM CHLORIDE] | 3.1 µM (inactive) | 11 µM (inactive) | 2.69 µM (inactive) | 5.38 µM (inactive) | 1.58 µM (inactive) | 1.37 µM (inactive) | 3.5 µM (inactive) | 5.2 µM (inactive) | 4.48 µM (inactive) | 1.09 µM (active) | 3.22 µM (inactive) | 3.84 µM (inactive) | 0.995 µM (active) | 3.67 µM (inactive) | 2.97 µM (inactive) | 8.22 µM (inactive) | 2.99 | 8.71 µM (inactive) | 21.3 µM (inactive) | 9.71 µM (inactive) |
| COc1ccc2nc(C)cc(NCCCCCCCCCNc3cc(C)nc4ccc(OC)cc34)c2c1 | 3.6 µM (inactive) | 4.14 µM (inactive) | 1.29 µM (inactive) | 1.93 µM (inactive) | 1.02 µM (active) | 13.7 µM (inactive) | 3.79 µM (inactive) | 1.73 µM (inactive) | 3.4 µM (inactive) | 1.46 µM (inactive) | 1.5 µM (inactive) | 1.26 µM (inactive) | 1.24 µM (inactive) | 0.486 µM (active) | 2.28 µM (inactive) | 6.18 µM (inactive) | 2.3 | 8.87 µM (inactive) | 13.7 µM (inactive) | 8.79 µM (inactive) |
| CC(=O)OCC(=O)O[C@@H]1[C@H]2[C@@H](OC(=O)c3ccccc3)[C@@H](C)C[C@]2(O)[C@H](OC(C)=O)[C@@]2(C)C(OC(C)=O)[C@]1(OC(C)=O)C[C@H]1C(=O)C(C)(C)C[C@@H]12 (stereo not given in full) | > 50 µM (inactive) | > 50 µM (inactive) | > 19.6 µM (inactive) | > 50 µM (inactive) | > 47.9 µM (inactive) | > 50 µM (inactive) | > 50 µM (inactive) | > 50 µM (inactive) | > 42 µM (inactive) | 18.1 µM (inactive) | 9.98 µM (inactive) | > 50 µM (inactive) | > 46.6 µM (inactive) | > 50 µM (inactive) | 12.8 µM (inactive) | > 50 µM (inactive) | > 47.1 | > 45.3 µM (inactive) | 29.1 µM (inactive) | > 50 µM (inactive) |
| O=C(O)c1c(CC(Cc2ccccc2)C(=O)O)ccc2c1CCC2 (stereo not given) | > 100 µM (inactive) | > 100 µM (inactive) | > 100 µM (inactive) | > 100 µM (inactive) | > 100 µM (inactive) | > 100 µM (inactive) | > 100 µM (inactive) | 66.5 µM (inactive) | > 100 µM (inactive) | > 100 µM (inactive) | > 100 µM (inactive) | > 100 µM (inactive) | > 100 µM (inactive) | > 100 µM (inactive) | > 100 µM (inactive) | > 100 µM (inactive) | > 100 | > 100 µM (inactive) | > 100 µM (inactive) | > 100 µM (inactive) |
